Patent publication US20250282723A1, “AMYLOID TARGETING AGENTS AND METHODS OF USING THE SAME” (The Regents of the University of California, priority 2021, published 2025)
Where “and” joins values, the source holds several entries; their conditions need not be identical. Equal entries are not always repeated.

Key:
[1] = target: T1, aggregated Aβ (1-42) peptides (Homo sapiens, UniProt P05067); assay: Estimation of binding constant (KD) to aggregated Aβ (1-42) peptides; details: aggregated Aβ(1-42) 5 μM, increasing concentration of probe, 5% DMSO in nanopure water
T1 construct: Synthetic Aβ (1-42) peptide was purchased from Biopeptide, Co LLC; purchased Biopeptide, Co LLC (San Diego, California); host or cells: chemical synthesis
Method: (§1) Preparation of aggregated Aβ (1-42) peptides. Synthetic Aβ (1-42) peptide was purchased from Biopeptide, Co LLC (San Diego, California). Aggregated Aβ (1-42) was prepared as previously described.^26 Briefly, Aβ (1-42) was dissolved in 100% 1,1,1,3,3,3,-hexafluoro-2-propanol (HFIP) to a concentration of 1 mM and put on a shaker at room temperature (RT) for 24 hours. The solution was then diluted in cold nanopure water (2:1 H2O: HFIP). Aliquoted fractions were lyophilized for 3 days before dissolving in nanopure water to a concentration of 100 μM. Aggregated Aβ solutions were incubated and shaken at 37° C. for 3 days before use. The formation of soluble aggregates (67% fibrils as a mixture with 13% oligomers and 20% monomer) was confirmed using a standard thioflavin T (ThT) assay and by Sodium Dodecyl Sulphate-Polyacrylamide Gel Electrophoresis (SDS-PAGE) gel analysis (FIG. 11 and FIG. 12).
Estimation of Binding Constant (KD) to aggregated Aβ (1-42) peptides. Aggregated Aβ(1-42) at a final concentration of 5 μM (based on the molecular weight of monomer) was mixed with increasing concentration of each probe in 5% DMSO in nanopure water. KD's were determined as previously described.^21
(§2) Synthetic Aβ (1-42) peptide was purchased from Biopeptide, Co LLC (San Diego, California). Aggregated Aβ (1-42) was prepared as previously described.^32 Briefly, monomeric Aβ (1-42) was dissolved in 100% 1,1,1,3,3,3,-hexafluoro-2-propanol (HFIP) to a final concentration of 1 mM and dissolved on a shaker at RT for 24 hours. This solution was then diluted with cold nanopure water (2:1 H2O:HFIP) and aliquoted into fractions. These samples were then lyophilized for 3 days before dissolving in nanopure water to a final concentration of 100 μM. AD solutions were aggregated by incubating and shaking at 37° C. for 3 days before use. The formation of soluble aggregates was confirmed using a standard Thioflavin T (ThT) assay and by SDS-PAGE gel analysis.^1
(§3) Aggregated Aβ(1-42) or αS at a final concentration of 5 μM (based on the molecular weight of the monomer) was mixed with an increasing concentration of each probe in 5% DMSO in nanopure water. Kd's were calculated as previously described.^34 The measurements for each probe were repeated in technical triplicates and the averages are shown with standard deviations. Kd's for probes 1-3 with aggregated Aβ(1-42) have been reported previously.^31

[2] = target: T1, aggregated Aβ (1-42) peptides; assay: Fluorescence excitation/emission and fluorescence enhancement of probes bound versus unbound to aggregated Aβ (1-42) peptides; format: binding; details: probe 4 μM; for Em (λmax) (with Aβ) / Ex (λmax) (with Aβ): aggregated Aβ (1-42) 5 μM; for Fold Increase with Aβ: fluorescence intensity with aggregated Aβ (1-42) 5 μM vs probe alone, at λmax of the amyloid-bound state
Method: as §1
(§4) Estimation of fluorescence enhancement of probes when bound versus unbound to aggregated Aβ (1-42) peptides. Aggregated Aβ (1-42) at a final concentration of 5 μM (based on the molecular weight of monomer) was mixed with each fluorescent probe at a final concentration of 4 μM in 5% DMSO in nanopure water. The solution (80 μL) was transferred to a black opaque 96 well plate and the fluorescence was read using a microplate reader. For all probes, the relative fluorescence enhancement of the bound versus unbound state was estimated by comparing the intensity at λmax of the amyloid-bound state.
as §2
(§5) Aggregated αS or Aβ(1-42) at a final concentration of 5 μM (based on the molecular weight of monomer) was mixed with each fluorescent probe at a final concentration of 4 μM in 5% DMSO in nanopure water. The solution (80 μL total volume) was transferred to a black opaque 96 well plate and the fluorescence excitation and emission were read using a microplate reader. For emission fluorescence enhancement, the relative fluorescence enhancement of the bound versus unbound state was estimated by comparing the fluorescence intensity at λmax of the amyloid-bound state.

[3] = Fluorescence excitation and emission spectra of free (unbound) probes in aqueous solution; format: physicochemical; details: for Em (λmax) (Free) / Ex (λmax) (Free): free probe in aqueous solution; for fluorescence intensity of the free probe in aqueous solution compared to ARCAM (1): free probes in aqueous solution, FIG. 2
Method: as §4, §5

[4] = Quantum yield measurements; format: physicochemical; details: 5% DMSO/H2O, reference standard Coumarin 30
Method: Quantum Yield Measurements. To determine the quantum yield (QY) of compounds ARCAM, 1-5, a procedure that was similar to a previously reported protocol for estimating the QY for Thioflavin T^24 was used. Briefly, the absorbance spectrum of each probe (in 5% Dimethyl Sulfoxide (DMSO)/water (H2O)), in addition to the absorbance spectrum for the reference standard (Coumarin 30, QY=0.67)^27 was measured. The wavelength at which the two normalized absorbance curves intersected was used as the excitation wavelength. A serial dilution of each probe and the standard was made with absorbance values at the excitation wavelength in the range of 0 to 0.1 absorbance units. At each concentration, the emission spectra for each probe and the standard were measured. Technical triplicates of these experiments were performed for all probes, and the averages were recorded. From these emission spectra, the area under the curve was calculated and plotted against the absorbance at each concentration (FIGS. 3-7). The data were fitted to Equation 1 to obtain estimates for QY: […]
where QY represents the quantum yield, A represents the absorbance, E represents the integrated fluorescence emission, η represents the refractive index of the solvent^28,29, and the ‘p’ and ‘r’ subscripts signify the probe or the reference compound, respectively.
Quantum Yield ((D) for each probe was measured as described previously.^31 Briefly, we measured the absorbance spectrum of each probe in 5% DMSO/H2O, as well as the absorbance spectrum for the reference standard (Coumarin 30, =0.67 in Acetonitrile). Both normalized absorbance curves were plotted, and the wavelength of intersection was used as the excitation wavelength. A serial dilution was made for each probe and the standard with absorbance values at the excitation wavelength varying between of 0 to 0.1 absorbance units. At each concentration, the emission spectra for each probe and the standard were measured. Each experiment was repeated in technical triplicates for all probes, and the averages were recorded. The integrated fluorescence emission was calculated and plotted against the absorbance at each concentration. The data were fitted to Equation Si to obtain estimates for Φ: […]
where Φ represents the quantum yield, A represents the absorbance, E represents the integrated fluorescence emission, η represents the refractive index of the solvent, and the ‘p’ and ‘r’ subscripts signify the probe or the reference compound, respectively.

aggregated αS [5] = target: T2, aggregated αS (Homo sapiens, UniProt P37840); assay: Estimation of binding constant (Kd) to aggregated αS; details: probes of FIG. 14; aggregated αS 5 μM, increasing concentration of probe, 5% DMSO in nanopure water
T2 construct: made in house; host or cells: E. coli BL21 (plasmid pET5α aSynWT)
Method: (§6) Expression and purification of recombinant α-synuclein was followed as reported previously.^32 Briefly, α-synuclein was purified from BL21 E. coli as described: A starter culture of transformed bacteria (pET5α aSynWT) (LB broth with ampicillin [final concentration: 100 μg/mL]) was incubated overnight. Following incubation, 25 mL of the started culture was added to a 500 mL mixture of LB broth and ampicillin. Protein expression was induced by addition of IPTG [0.119 g/500 mL] when an OD600 between 0.5-0.8 was achieved. After 4 h, flasks were centrifuged (5,000×g for 20 min) and the supernatant was removed. The pellets were then re-suspended in 20 mM Tris, 25 mM NaCl, 1 mM EDTA, pH 8.0, transferred into a flask, boiled for 1-2 minutes in a microwave, and boiled in a water bath (90° C.) for 30 minutes. Samples were then centrifuged (18,000×g for 30 min) and the supernatant was collected and filtered through a 0.2 μm filter. α-synuclein protein was further purified using 2×5 ml HiTrapQ HP anion exchange columns (GE, #17-1153-01) followed by Size Exclusion Column (Superdex 200, #28-9893-35). Pure α-synuclein determined by Coomassie and western blot were lyophilized and stored at −80° C. until use.
(§7) Aggregation of purified α-synuclein was followed as reported previously.^33 The lyophilized powder was dissolved to a final concentration of 100 μM in sodium phosphate buffer (50 mM, pH 7.4) with 0.1 mM EDTA and 0.02% sodium azide (w/v) and was aggregated at 37° C. with shaking at 500 rpm for 3 weeks. Fibrillization was confirmed by SDS-PAGE gel and standard ThT assay.
as §3

aggregated αS [6] = target: T2, aggregated αS; assay: Fluorescence emission and fluorescence enhancement of probes bound versus unbound to aggregated αS; format: binding; details: probes of FIG. 14
Method: as §6, §7, §5

[7] = in Acetonitrile; cited from earlier work

T1 sequence (P05067 672-713): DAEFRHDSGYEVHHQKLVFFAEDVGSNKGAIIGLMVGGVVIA

Compound | Kd [1] | Em (λmax) (with Aβ) ([2]; 5% DMSO in nanopure water) | Ex (λmax) (with Aβ) ([2]; 5% DMSO in nanopure water) | Fold Increase with Aβ ([2]; 5% DMSO in nanopure water) | Em (λmax) (Free) [3] | Ex (λmax) (Free) [3] | QY [4] | fluorescence intensity of the free probe in aqueous solution compared to ARCAM (1) [3] | also measured
COCCOCCOCCNC(=O)C(C#N)=C(c1ccc2cc(N3CCCCC3)ccc2c1)C(F)(F)F (mixture of isomers) [Compound 3, (Z)-2-cyano-4,4,4-trifluoro-N-(2-(2-(2-methoxyethoxy)ethoxy)ethyl)-3-(6-(piperidin-1-yl)naphthalen-2-yl)but-2-enamide] | 3.7 ± 1.1 µM | 514 ± 6 nm | 410 ± 5 nm | 5.4 fold and 5.4 ± 0.9 fold | 547 ± 5 nm | 419 ± 4 nm | 0.0012 ± 0.0004 | decreased in fluorescence intensity by two orders of magnitude | 
CCCC1CCCCN1c1ccc2cc(/C=C(\C#N)C(=O)NCCOCCOCCOC)ccc2c1 (stereo not drawn) [Probe 4, (E)-2-cyano-N-(2-(2-(2-methoxyethoxy)ethoxy)ethyl)-3-(6-(2-propylpiperidin-1-yl)naphthalen-2-yl)acrylamide] |  |  |  |  |  |  |  |  | Kd (aggregated αS [5]): 0.5 ± 0.1 µM; Kd ([1]; probes of FIG. 14): 4 ± 2.7 µM; Emmax (with Aβ) ([2]; probes of FIG. 14, aggregated Aβ(1-42) 5 μM, 5% DMSO in nanopure water): 558 nm; FI with Aβ ([2]; probes of FIG. 14, fold increase of fluorescence, bound vs unbound, aggregated Aβ(1-42) 5 μM): 1.8 ± 0.2; Emmax (Free) ([3]; probes of FIG. 14, free): 578 nm; Quantum Yield (Φ) ([4]; probes of FIG. 14): 0.0062; Emmax (with αS) (aggregated αS [6]; aggregated αS 5 μM, probe 4 μM, 5% DMSO in nanopure water): 539 nm; FI with αS (aggregated αS [6]; fold increase of fluorescence, bound vs unbound, aggregated αS 5 μM, probe 4 μM): 5.2 ± 0.8; FI αS/Aβ (aggregated αS [6]; selectivity of fluorescence response to αS fibrils over Aβ fibrils): 2.9
CCN(CC)c1ccc2cc(-c3nc4ccccc4n3C)c(=O)oc2c1 [Coumarin 30] |  |  |  |  |  |  |  |  | quantum yield of the reference standard [7]: 0.67

More lines, main results first:

Kd [1] | Em (λmax) (with Aβ) ([2]; 5% DMSO in nanopure water) | Ex (λmax) (with Aβ) ([2]; 5% DMSO in nanopure water) | Fold Increase with Aβ ([2]; 5% DMSO in nanopure water) | Em (λmax) (Free) [3] | Ex (λmax) (Free) [3] | QY [4] | Compound | fluorescence intensity of the free probe in aqueous solution compared to ARCAM (1) [3] | also measured
5 ± 1.7 µM | 547 ± 4 nm | 364 ± 6 nm | 3.5 fold and 3.5 ± 0.9 fold | 601 ± 2 nm | 372 ± 14 nm | 0.0016 ± 0.0005 | COCCOCCOCCNC(=O)/C(C#N)=C(\C)c1ccc2cc(N3CCCCC3)ccc2c1 [Compound 2, (E)-2-cyano-N-(2-(2-(2-methoxyethoxy)ethoxy)ethyl)-3-(6-(piperidin-1-yl)naphthalen-2-yl)but-2-enamide] | decreased in fluorescence intensity by two orders of magnitude | 
 |  |  |  |  |  | 0.0006 | Cc1ccc2c(c1)sc(-c1ccc(N(C)C)cc1)[n+]2C.[Cl-] [ThT, Thioflavin T, reference compound] |  | 
